# Reference: patent US8198084B2, “Serum-free mammalian cell culture medium, and uses thereof” (Life Technologies Corporation, priority 1996, dated 2012)
# Key:
# rβ-gal CHO cells [1] = assay: rβ-Gal assay (ONPG) in lysates of rβ-gal CHO cells; type: cell-based, Chinese hamster; conditions: for level of rβ-gal expression versus CD CHO control: Example 14, 25 μg/mL in CD CHO medium, FIG. 14
# Method: rβ-Galactosidase (rβ-gal or rβeta-Gal) was measured in cell lysates using a modification of the method described by Hall et al., J. Mol. Appl. Gen. 2:101-109 (1983) and Miller, Experiments in Molecular Genetics, Cold Spring Harbor Laboratory (1972). Briefly, a 2.0 ml sample of cell suspension was collected from each sample and subjected to two freeze-thaw cycles, centrifuged at 100× g for 4 minutes, and the supernatant was saved for rβ-Galactosidase quantitation. 100 μl of each supernatant sample was added to 1.0 ml Z buffer (0.06 M Na2HPO4, 0.04M NaH2PO4, 0.01M KCl, 0.01M MgSO4-7H2O, 0.05M β-mercaptoethanol, pH 7.0), followed by 200 μl of o-nitrophenyl-p-D-galactoside (ONPG, 4.0 mg/ml in dH20) and incubated at 37° C. for 120 minutes. The reaction was halted by addition of 500 μl stop buffer (1M Na2CO3) and absorbance at 420 nm was read against a blank of the appropriate medium. Activity was calculated using the following formulae:
# [formula] Units rβ-galactosidase/# of cells=Activity/cell 2.
# rβ-gal CHO cells [2] = assay: Growth (cell density) of rβ-gal CHO cells in suspension culture; type: cell-based, Chinese hamster; conditions: for cell growth and viability versus CD CHO control: Example 14, 25 μg/mL in CD CHO medium, FIG. 13
# Method: To establish a recombinant β-galactosidase (rβ-Gal) CHO cell line, CHO cells deficient in dihydrofolate reductase (DHFR^−) were obtained from ATCC(CRL-9096, Rockville, Md.) and transfected with two plasmids: pSV2dhfr (ATCC 37146), containing a gene for methotrexate (MTX) resistance, and pCMVβgal, which contains the lacZ cDNA. The transfection was conducted using LipofectAMINE™ Reagent, and selection was accomplished with 1.2 μM methotrexate (Sigma Chemical Co., St Louis, Mo.). Stock cultures were maintained in CHO-S-SFM II or CHO III Prototype supplemented with 0.3 μM MTX.
# Unless indicated otherwise below, CHO cell culture conditions were as follows for the following Examples. 25-35 mL of CHO cells were cultured in 125 mL shake flasks in humidified air containing 5-10% carbon dioxide. The shake flasks were shaken on an orbital shaking platform at 125-135 rpm. Temperature was maintained at 37° C. Cells were subcultured every three to four days to a density of 2−3×10^5 cells/mL.
# [3] = system: 293 human embryonic kidney cells; assay: Suspension culture of 293 cells: cell density and viability; type: cell-based; conditions: lower-protein media, transferrin replaced by iron chelate; FIG. 2
# Method: Adenovirus type 5-transformed 293 human embryonic kidney epithelial cells were obtained from ATCC(CRL 1573), and were cultured as described in Example 4 by incubation at 37° C. in a humidified atmosphere consisting of 8% CO2/92% air.
# Cultures of 293 cells in serum-supplemented media were weaned from serum by passage 2-3 times in OptiMEM medium (Life Technologies, Inc.; Rockville, Md.) supplemented with 2% normal horse serum in 165 cm^2 culture flasks. After the second or third passage, when cells reached 50-75% confluence, they were dislodged from the growth surfaces by gently rapping the flasks several times; trypsin or other proteolytic agents were not used, since such agents often cause irreversible damage to cells cultivated in low-serum or serum-free media. Cells were resuspended in the present culture media and triturated until aggregates dispersed into a single cell suspension, and cell concentration and viability was determined by trypan blue exclusion counting on a hemacytometer according to routine procedures.
# Cells were then seeded into the present culture medium in Erlenmeyer flasks at a density of about 2.5−3.0×10^5 cells/ml. […] Cell densities and viabilities were determined at least every other day, and cells were subcultured when the density approached about 7.5−10.0×10^5 cells/ml by diluting cultures with fresh culture medium to a density of about 2.5−3.0×10^5 cells/ml. […]
Compound,level of rβ-gal expression versus CD CHO control (rβ-gal CHO cells [1]),cell growth and viability versus CD CHO control (rβ-gal CHO cells [2]),support of 293 cell growth compared with complete media [3],also measured
"dextran sulfate [dextran sulfate (m.w. 500,000)]",did not display enhanced expression,"increased cell growth and viability at days 5 and 7, but not at day 9",,
"CN(Cc1cnc2nc(N)nc(N)c2n1)c1ccc(C(=O)N[C@@H](CCC(=O)O)C(=O)O)cc1 [MTX, methotrexate, reference compound]",,,,"relation of concentration to rβ-galactosidase specific activity (rβ-gal CHO cells [1]; Example 9, CD CHO medium with increasing concentrations, FIG. 7B): proportional; relation of concentration to cell density (rβ-gal CHO cells [2]; Example 9, CD CHO medium with increasing concentrations, FIG. 7A): inversely proportional"
"dextran sulfate [dextran sulfate (m.w. 5,000)]","an increase in the level of rβ-gal expression at days 5, 7, and 9","increased cell growth and viability at days 5, 7, and 9",,
FeSO4-EDTA,,,performed equivalently to complete media,
FeCl3-sodium citrate,,,performed equivalently to complete media,
